Laboratory results published in PMC8131363 (Scientific Reports, 2021).
Like-named read-outs stand apart in the source and are kept apart here.

Legend:
cCaSR [1] = target: T1, cCaSR (Felis catus, UniProt C7FF08)
T1 sequence (C7FF08 1-1081): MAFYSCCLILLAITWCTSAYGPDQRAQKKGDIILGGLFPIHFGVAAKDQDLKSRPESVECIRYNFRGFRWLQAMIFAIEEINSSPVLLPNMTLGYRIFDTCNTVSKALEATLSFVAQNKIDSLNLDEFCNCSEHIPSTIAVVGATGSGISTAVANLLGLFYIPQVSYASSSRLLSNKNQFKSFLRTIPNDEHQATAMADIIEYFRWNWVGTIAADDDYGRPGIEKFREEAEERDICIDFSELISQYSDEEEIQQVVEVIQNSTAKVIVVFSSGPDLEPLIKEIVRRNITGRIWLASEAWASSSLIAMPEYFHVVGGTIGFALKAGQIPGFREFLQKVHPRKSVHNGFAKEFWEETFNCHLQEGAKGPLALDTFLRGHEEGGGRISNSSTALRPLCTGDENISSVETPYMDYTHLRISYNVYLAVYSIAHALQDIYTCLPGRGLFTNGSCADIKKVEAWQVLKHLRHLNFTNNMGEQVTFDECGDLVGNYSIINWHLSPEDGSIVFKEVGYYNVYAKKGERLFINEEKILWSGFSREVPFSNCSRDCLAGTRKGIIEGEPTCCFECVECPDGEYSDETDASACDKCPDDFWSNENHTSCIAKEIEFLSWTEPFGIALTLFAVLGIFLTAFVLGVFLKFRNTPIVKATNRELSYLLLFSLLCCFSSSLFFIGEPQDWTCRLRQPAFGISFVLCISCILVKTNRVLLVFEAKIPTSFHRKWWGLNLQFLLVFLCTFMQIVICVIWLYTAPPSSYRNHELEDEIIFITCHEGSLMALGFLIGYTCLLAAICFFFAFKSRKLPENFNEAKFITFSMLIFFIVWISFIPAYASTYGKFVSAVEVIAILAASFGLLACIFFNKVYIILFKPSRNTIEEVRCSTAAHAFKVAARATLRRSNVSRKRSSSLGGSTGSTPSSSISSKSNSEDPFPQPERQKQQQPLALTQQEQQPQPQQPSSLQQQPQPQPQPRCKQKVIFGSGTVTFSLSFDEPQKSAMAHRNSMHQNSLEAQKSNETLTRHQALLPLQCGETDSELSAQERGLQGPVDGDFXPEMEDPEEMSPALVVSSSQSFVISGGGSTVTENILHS

cCaSR [2] = target: T1, cCaSR; assay: cCaSR PAM luminescence assay, double injection with 0.5 mM CaCl2, HEK293/T-REx/natClytin-cCaSR
[3] = Supplementary Table I, agonist assay, dash = no activity
[4] = Supplementary Table I, PAM assay, dash = no activity
[5] = agonist assay, stable inducible cCaSR line, > 0.01 M = maximal response not reached
[6] = read-out: EC50 Ago, Supplementary Table I, agonist assay, > 0.01 M = maximal response not reached
[7] = read-out: cCaSR activity, agonist assay, stable inducible cCaSR line, at least three wells

Row | Compound | EC50 Ago (M) (cCaSR [1]; [3]) | EC50 PAM (M) (cCaSR [2]; [4]) | also measured
1 | NC[C@H]1O[C@H](O[C@H]2[C@H](O)[C@@H](O[C@H]3O[C@H](CO)[C@@H](O)[C@H](N)[C@H]3O)[C@H](N)C[C@@H]2N)[C@H](O)[C@@H](O)[C@@H]1O [Kanamycin solution, Kanamycin, reference compound] | - | - | 
2 | N[C@@H](CCP(=O)(O)O)C(=O)O [L-2-Amino-4-phosphonobutyric acid] | - | - | 
3 | C[C@H](N)C(=O)O [L-Alanine] | - | - | 
4 | COC(=O)[C@@H](N)CCCN=C(N)N [L-Arginine methyl ester] | - | - | 
5 | N=C(N)NCCC[C@H](N)C(=O)O [L-Arginine] |  |  | EC50 Ago (M) (cCaSR [1]): -; EC50 PAM (M) (cCaSR [2]): -
6 | NC(=O)C[C@H](N)C(=O)O [L-Asparagine] | - | - | 
7 | N[C@@H](CS)C(=O)O [L-Cysteine] | - | - | 
8 | COC(=O)CC[C@H](N)C(=O)O [L-Glutamic Acid 5-Methyl Ester] | - | - | 
9 | NC(=O)CC[C@H](N)C(=O)O [L-Glutamine] | - | - | 
10 | N[C@@H](Cc1c[nH]cn1)C(=O)O [L-Histidine] | - | - | 
11 | N[C@@H](CCO)C(=O)O [L-Homoserine] | - | - | 
12 | CC[C@H](C)[C@H](N)C(=O)O [L-Isoleucine] | - | - | 
13 | CC(C)C[C@H](N)C(=O)O [L-Leucine] | - | - | 
14 | CSCC[C@H](N)C(=O)O [L-Methionine] |  |  | EC50 Ago (M) (cCaSR [1]): -; EC50 PAM (M) (cCaSR [2]): -
15 | NCCC[C@H](N)C(=O)O [L-Ornithine] | - | - | 
16 | O=C(O)[C@@H]1CCCN1 [L-Proline] | - | - | 
17 | N[C@@H](C[Se][Se]C[C@H](N)C(=O)O)C(=O)O.O [L-Selenocystine monohydrate] | - | - | 
18 | N[C@@H](CO)C(=O)O [L-Serine] | - | - | 
19 | C[C@@H](O)[C@H](N)C(=O)O [L-Threonine] | - | - | 
20 | N[C@@H](Cc1ccc(O)cc1)C(=O)O [L-Tyrosine] | - | - | 
21 | CC(C)[C@H](N)C(=O)O [L-Valine] | - | - | 

Row | Compound | EC50 Ago (M) (cCaSR [1]; [3]) | EC50 PAM (M) (cCaSR [2]; [4]) | also measured
22 | O=P(O)(O)CP(=O)(O)O [Methylenediphosphonic acid] |  | - | EC50 (cCaSR [1]; [5]): 1290 µM; EC50 (cCaSR [1]; [6]): 1290 µM
23 | NCCNCCCNCCN [N,N'-Bis(2-aminoethyl)-1,3-propanediamine] |  |  | EC50 Ago (M) (cCaSR [1]): -; EC50 PAM (M) (cCaSR [2]): -
24 | CN(C)C(N)=NCCC[C@H](N)C(=O)O.Cl.Cl [NG,NG-Dimethylarginine dihydrochloride] | - | - | 
25 | COC(=O)[C@@H](N)CCCNC(N)=N[N+](=O)[O-] [NG-Nitro-L-Arginine Methyl Ester] | - | - | 
26 | CNC(=N)NCCC[C@H](N)C(=O)O [NG-methyl L Arginine] | - | - | 
27 | CC(C)(Cc1ccc2ccccc2c1)NC[C@@H](O)COc1cccc(Cl)c1C#N [NPS 2143, reference compound] | - | - | 
28 | COC(=O)[C@@H](N)CCCNC(=N)N[N+](=O)[O-].Cl [Nω-Nitro-L-arginine methyl ester hydrochloride] | - | - | 
29 | O=S(=O)([O-])C(F)(F)F.O=S(=O)([O-])C(F)(F)F.O=S(=O)([O-])C(F)(F)F.[Pr+3] [Pr^3+, Praseodymium(III) trifluoromethanesulfonate] |  | - | EC50 (cCaSR [1]; [5]): 398 µM; EC50 (cCaSR [1]; [6]): 398 µM; EC50 (cCaSR [1]; [7]): < 1000 µM
30 | CC1(C)N[C@H](C(=O)O)Cc2c1[nH]c1ccccc21 [S-1,1-dimethyl-2,3,4,9-tetrahydro-1H-pyrido[3,4-b]indole-3-carboxylic acid] | - | - | 
31 | NC[C@H](N)C(=O)O [S-2,3-diaminopropanoic acid] | - | - | 
32 | O=C(O)[C@@H]1CNCCN1 [S-piperazine-2-carboxylic acid] | - | - | 
33 | O.O.O.O.O.O.O.O.O.O.O=P([O-])([O-])OP(=O)([O-])[O-].[Na+].[Na+].[Na+].[Na+] [Sodium pyrophosphate tetrabasic decahydrate] | - | - | 
34 | NCCCNCCCCNCCCN [Spermine] |  | - | agonist activity on cCaSR (in words) (cCaSR [1]): agonists
35 | [Sr+2] [Sr^2+] |  | - | EC50 (cCaSR [1]; [7]): > 10000 µM
36 | OC[C@H]1O[C@H](O[C@]2(CCl)O[C@H](CCl)[C@@H](O)[C@@H]2O)[C@H](O)[C@@H](O)[C@H]1Cl [Sucralose] | - | - | 
37 | OC[C@H]1O[C@@](CO)(O[C@H]2O[C@H](CO)[C@@H](O)[C@H](O)[C@H]2O)[C@@H](O)[C@@H]1O [Sucrose] | - | - | 
38 | NCCS(=O)(=O)O [Taurine] | - | - | 
39 | CC(=O)[O-].CC(=O)[O-].CC(=O)[O-].O.[Tb+3] [Tb^3+, Terbium(III) acetate hydrate] |  | - | EC50 (cCaSR [1]; [5]): 175 µM; EC50 (cCaSR [1]; [6]): 175 µM; EC50 (cCaSR [1]; [7]): < 1000 µM
40 | Cc1ccc(C2(CCNC(C)c3ccc(Cl)cc3)CCOC(C)(C)C2)cc1 (centres unmarked) [Vitas M Labs Express Pick - STK530456] | - |  | EC50 (cCaSR [2]; read-out: EC50 PAM, Supplementary Table I, positive allosteric modulator, presence of Ca2+): 26.1 µM
41 | NCCCC[C@H](NC(=O)C[C@H](N)C(=O)O)C(=O)O [β-Asp-Lys] | - | - | 
42 | CCOC(=O)CNC(=O)[C@H](CS)NC(=O)CC[C@H](N)C(=O)O [γ-Glu-Cys-Gly-Oet] | - | - | 
